Reference: patent publication US10940139B2, “Compounds that interact with the Ras superfamily for the treatment of cancers, inflammatory diseases, rasopathies, and fibrotic disease” (Shy Therapeutics LLC, priority 2017, dated 2021)

Tested on: MAPK phosphorylation in PANC-1 pancreatic cancer cell line
Assay: MAPK cell-based phosphorylation assay (cell-direct ELISA, EGF stimulation)
Conditions: Homo sapiens; for inhibition at 10 µM: * = tested at 10 μM
Outline: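 Cell-direct ELISA measured phospho-MAPK, with fluorescence read at 595 nm from AmpliFlu Red. Before fixation, PANC-1 cells starved overnight received 6 hours of compound (30 μM single dose or serial dilutions, 0.3% DMSO, 37° C), followed by 1.5 ng/ml EGF for 15 min.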

Structure (SMILES) | inhibition at 30 µM [%] | inhibition at 10 µM [%] | IC50 [µM]
COc1cnc(CNC(=O)Cn2cnc3nc(-c4ccccn4)nc(N4CCOCC4)c32)[nH]c1=O [drawing 1183] | 1 to 25 | – | –
NC(=O)Cn1cnc2nc(-c3ccccn3)nc(N3CCOCC3)c21 [drawing 1184] | 1 to 25 | – | –
O=C(COCc1ccncc1)Nc1nc(-c2ccccn2)nc2sccc12 [drawing 1185] | – | 1 to 25 | –
COc1ccnc(-c2nc(O)c3c(C(F)(F)F)csc3n2)c1 [drawing 1186] | – | 1 to 25 | –
Nc1nc(-c2ccccn2)nc2ccsc12 [drawing 1187] | – | 1 to 25 | –
O=C(c1cc2nc(-c3ccccn3)nc(O)c2s1)N1CCN(c2ccccc2)CC1 [drawing 1188] | – | 1 to 25 | –
Cc1ccc(OC2CCCC2)c(-c2csc3c(O)nc(-c4ccccn4)nc23)c1 [drawing 1189] | – | 25 to 50 | –
COCc1ccc(-c2csc3c(O)nc(-c4ccccn4)nc23)cc1F [drawing 1190] | – | 76 to 100 | 2 to 10
CC(C)(C)c1ccc(-c2csc3c(O)nc(-c4ccccn4)nc23)cc1 [drawing 1191] | – | 76 to 100 | 2 to 10
Oc1nc(-c2ccccn2)nc2c(-c3cc(Cl)cc(Cl)c3)csc12 [drawing 1192] | – | 1 to 25 | > 30
Oc1nc(-c2ccccn2)nc2c(-c3cccc4c3OCO4)csc12 [drawing 1193] | – | 76 to 100 | < 2
Oc1nc(-c2ccccn2)nc2sc3c(c12)CCNC3 [drawing 1194] | – | 25 to 50 | –
COc1ccc(CCNC(=O)c2csc3nc(-c4ccccn4)nc(N4CCS(=O)(=O)CC4)c23)cn1 [drawing 1195] | – | 1 to 25 | –
O=C(NCCc1cnc(O)nc1)c1csc2nc(-c3ccccn3)nc(N3CCS(=O)(=O)CC3)c12 [drawing 1196] | – | 1 to 25 | –
N#Cc1ccc2c(c1)CCCC2C(=O)Nc1ccnc(-c2ccccn2)n1 (stereo not drawn) [drawing 1197] | – | 1 to 25 | –
Cc1cnc(-c2ccccn2)nc1NC(=O)Cc1ccc2cnccc2c1 [drawing 1198] | – | 25 to 50 | –
O=C(COCc1ccnc(O)c1)Nc1nc(-c2ccccn2)nc2sccc12 [drawing 1199] | – | 1 to 25 | –
O=C(c1csc2c(O)nc(-c3ccccn3)nc12)N1CCNC(c2cn[nH]c2)C1 (stereo not drawn) [drawing 1200] | – | 25 to 50 | –
Nc1nc(-c2ccccn2)nc2c(-c3ccccc3)csc12 [drawing 1201] | – | 25 to 50 | –
Oc1nc(-c2ccccn2)nc2c(-c3cc(F)ccc3OC(F)F)csc12 [drawing 1202] | – | 1 to 25 | –
Oc1nc(-c2ccccn2)nc2c(-c3ccc(OC4CCCC4)cc3)csc12 [drawing 1203] | – | 25 to 50 | –
Oc1nc(-c2ccccn2)nc2c(-c3ccc(C4CCC4)cc3)csc12 [drawing 1204] | – | 51 to 75 | –

Structure (SMILES) | inhibition at 30 µM [%] | inhibition at 10 µM [%] | IC50 [µM]
Oc1nc(-c2ccccn2)nc2c(-c3ccccc3OC3CCCCC3)csc12 [drawing 1205] | – | 1 to 25 | –
Oc1nc(-c2ccccn2)nc2c(-c3ccc(OC4CCOCC4)cc3)csc12 [drawing 1206] | – | 1 to 25 | –
Oc1nc(-c2ccccn2)nc2c(-c3ccccc3F)csc12 [drawing 1207] | – | 76 to 100 | 2 to 10
COc1cc(C)c(-c2csc3c(O)nc(-c4ccccn4)nc23)cc1C [drawing 1208] | – | 1 to 25 | –
COc1ccccc1-c1csc2c(O)nc(-c3ccccn3)nc12 [drawing 1209] | – | 1 to 25 | –
Oc1nc(-c2ccccn2)nc2c(-c3ccc(F)cc3F)csc12 [drawing 1210] | – | 76 to 100 | 2 to 10
COc1cccc(-c2csc3c(O)nc(-c4ccccn4)nc23)c1 [drawing 1211] | – | 1 to 25 | –
Oc1nc(-c2ccccn2)nc2c(-c3cccc(C(F)(F)F)c3)csc12 [drawing 1212] | – | 76 to 100 | < 2
COc1ccc(F)cc1-c1csc2c(O)nc(-c3ccccn3)nc12 [drawing 1213] | – | 25 to 50 | –
Oc1nc(-c2ccccn2)nc2c(-c3ccsc3)csc12 [drawing 1214] | – | 76 to 100 | < 2
Oc1nc(-c2ccccn2)nc2c(-c3ccc(OC(F)F)cc3F)csc12 [drawing 1215] | – | 51 to 75 | –
CC(C)COc1ccc(-c2csc3c(O)nc(-c4ccccn4)nc23)cn1 [drawing 1216] | – | 51 to 75 | –
Cc1cc(OC(F)F)ccc1-c1csc2c(O)nc(-c3ccccn3)nc12 [drawing 1217] | – | 1 to 25 | –
Oc1nc(-c2ccccn2)nc2c(-c3ccc4c(c3)OCO4)csc12 [drawing 1218] | – | 76 to 100 | –
CC(C)(O)c1ccc(-c2csc3c(O)nc(-c4ccccn4)nc23)c(F)c1 [drawing 1219] | – | 76 to 100 | –
COc1ccc(-c2csc3c(O)nc(-c4ccccn4)nc23)c(C)c1 [drawing 1220] | – | 76 to 100 | –
Oc1nc(-c2ccccn2)nc2c(-c3ccccc3C(F)F)csc12 [drawing 1221] | – | 76 to 100 | –
COc1cc(-c2csc3c(O)nc(-c4ccccn4)nc23)cnc1C(F)(F)F [drawing 1222] | – | 1 to 25 | –
OCC1(c2ccc(-c3csc4c(O)nc(-c5ccccn5)nc34)cc2)CC1 [drawing 1223] | – | 51 to 75 | –
Oc1nc(-c2ccccn2)nc2c(-c3ccc(OC4CCCCC4)cc3)csc12 [drawing 1224] | – | 25 to 50 | –
Cc1cnccc1-c1csc2c(O)nc(-c3ccccn3)nc12 [drawing 1225] | – | 1 to 25 | –
O=C(CCn1ccnc1)Nc1nc(-c2ccccn2)nc2sccc12 [drawing 1226] | – | 1 to 25 | –

Structure (SMILES) | inhibition at 30 µM [%] | inhibition at 10 µM [%] | IC50 [µM]
O=C(CCc1nn[nH]n1)Nc1nc(-c2ccccn2)nc2sccc12 [drawing 1227] | – | 25 to 50 | –
O=C(CCc1cncnc1)Nc1nc(-c2ccccn2)nc2sccc12 [drawing 1228] | – | 1 to 25 | –
Nc1nc(-c2ccccn2)nc2c(Br)csc12 [drawing 1229] | – | 25 to 50 | –
Cc1sc2c(N)nc(-c3ccccn3)nc2c1Br [drawing 1230] | – | 1 to 25 | –
Nc1nc(-c2ccccn2)nc2scc(Br)c12 [drawing 1231] | – | 1 to 25 | –
COC(=O)c1csc2nc(-c3ccccn3)nc(N)c12 [drawing 1232] | – | 25 to 50 | –
COc1nccc(CCNC(=O)c2csc3nc(-c4ccccn4)nc(N4CCOCC4)c23)n1 [drawing 1234] | – | 25 to 50 | –
O=C(NCCc1ccnc(O)n1)c1csc2nc(-c3ccccn3)nc(N3CCOCC3)c12 [drawing 1235] | – | 1 to 25 | –
CN1CCN(c2nc(-c3ccccn3)nc3scc(C(=O)NCCc4cnc(O)nc4)c23)CC1 [drawing 1236] | – | 25 to 50 | –
Oc1nc(-c2ccccn2)nc2c(-c3cc(F)cc(F)c3)csc12 [drawing 1237] | – | 76 to 100 | –
Oc1nc(-c2ccccn2)nc2c(-c3ccc4c(c3)CCCO4)csc12 [drawing 1238] | – | 76 to 100 | –
CCn1nc(C)cc1-c1csc2c(O)nc(-c3ccccn3)nc12 [drawing 1239] | – | 1 to 25 | –
Oc1nc(-c2ccccn2)nc2c(-c3ccnn3-c3ccccn3)csc12 [drawing 1240] | – | 1 to 25 | –
Cc1sc2c(O)nc(-c3ccccn3)nc2c1-c1ccccc1 [drawing 1241] | – | 76 to 100 | –
Nc1nc(-c2ccccn2)nc2scc(C(=O)O)c12 [drawing 1242] | – | 1 to 25 | –
COC(=O)c1cc2nc(-c3ccccn3)nc(O)c2s1 [drawing 1243] | – | 25 to 50 | –
COc1nc(-c2ccccn2)nc2c(C3CCCC3)csc12 [drawing 1244] | – | 1 to 25 | –
CCC(C)c1csc2c(OC)nc(-c3ccccn3)nc12 (stereo not drawn) [drawing 1245] | – | 25 to 50 | –
Cc1cc2nc(-c3ccccn3)nc(O)c2s1 [drawing 1246] | – | 25 to 50 | –
COC(=O)c1c(C)sc2c(O)nc(-c3ccccn3)nc12 [drawing 1247] | – | 1 to 25 | –
Cc1c(Br)sc2c(O)nc(-c3ccccn3)nc12 [drawing 1248] | – | 1 to 25 | –
Cc1c(C(=O)O)sc2c(O)nc(-c3ccccn3)nc12 [drawing 1249] | – | 25 to 50 | –

Structure (SMILES) | inhibition at 30 µM [%] | inhibition at 10 µM [%] | IC50 [µM]
Oc1nc(-c2ccccn2)nc2c(C3CCC3)csc12 [drawing 1250] | – | 76 to 100 | –
COc1nc(-c2ccccn2)nc2c(C3CCCCC3)csc12 [drawing 1251] | – | 1 to 25 | –
CC(C)Oc1cnc(-c2ccccn2)nc1O [drawing 1252] | – | 1 to 25 | –
CN(C)CCOc1cccc(-c2csc3c(O)nc(-c4ccccn4)nc23)c1 [drawing 1253] | – | 76 to 100 | –
CC(C)Cc1csc2c(O)nc(-c3ccccn3)nc12 [drawing 1255] | – | 76 to 100 | –
Oc1nc(-c2ccccn2)nc2c(C3CCCC3)csc12 [drawing 1256] | – | 76 to 100 | –
COc1cnc(-c2cn(C)cn2)nc1O [drawing 1257] | – | 51 to 75 | –
Cc1sc2c(O)nc(-c3ccccn3)nc2c1-c1ccncc1 [drawing 1258] | – | 51 to 75 | –
Oc1cccc(-c2csc3c(O)nc(-c4ccccn4)nc23)n1 [drawing 1259] | – | 51 to 75 | –
COC(=O)c1c(C)sc2c(N)nc(-c3ccccn3)nc12 [drawing 1260] | – | 25 to 50 | –
O=C(NCCc1ccncn1)c1csc2nc(-c3ccccn3)nc(N3CCOCC3)c12 [drawing 1261] | – | 0 | –
CC(C)c1nn(C)cc1-c1csc2c(O)nc(-c3ccccn3)nc12 [drawing 1262] | – | 0 | –
Oc1nc(-c2ccccn2)nc2c(-c3cc(CN4CCCC4)ccc3F)csc12 [drawing 1263] | – | 0 | –
N#Cc1cccc(-c2csc3c(O)nc(-c4ccccn4)nc23)c1 [drawing 1264] | – | 0 | –
Oc1nc(-c2ccccn2)nc2c(-c3cncnc3)csc12 [drawing 1265] | – | 0 | –
Cc1c(-c2csc3c(O)nc(-c4ccccn4)nc23)cnn1C [drawing 1266] | – | 0 | –
Cc1nn(C(C)C)cc1-c1csc2c(O)nc(-c3ccccn3)nc12 [drawing 1267] | – | 0 | –
Oc1nc(-c2ccccn2)nc2c(-c3cncc(C(F)F)c3)csc12 [drawing 1268] | – | 0 | –
Cc1sc2c(O)nc(-c3ccccn3)nc2c1C(=O)N1CCN(c2ccccc2)CC1 [drawing 1269] | – | 1 to 25 | –
